According to patent US20040033940A1, “Cyclic hepta-peptide derivative from colonial ascidians, lissoclinum SP” (Pharma Mar, S.A., priority 2002, published 2004):
In brackets after ≈: the same amount, converted by molar mass. Starred links: 1 amine or outer side, 2 acyl side, 3 side chain; linkers in the order of their positions; H or OH if unused. Non-standard residues stand in square brackets, D forms with d. Residues, ends and D or L forms follow the SMILES beside them. *: point of attachment. X1 = O=C([C@@H]1CSC([C@H](Cc2ccccc2)N[*:1])=N1)[*:2]; Allyl(1,1-Me2) = C=CC(C)(C)*

Legend:
[1] = test system: MEL-28 (monolayer culture of a human melanoma)
Experimental: (§1) Cells were maintained in logarithmic phase of growth in Eagle's Minimum Essential Medium, with Earle's Balanced Salts, with 2.0 mM L-glutamine, with non-essential amino acids, without sodium bicarbonate (EMEM/neaa); supplemented with 10% Fetal Calf Serum (FCS), 10^−2 M sodium bicarbonate and 0.1 g/l penicillin-G+streptomycin sulfate.
(§2) The antitumor cells employed were P-388 (suspension culture of a lymphoid neoplasm from DBA-2 mouse), A-549 (monolayer culture of a human lung carcinoma), HT-29 (monolayer culture of a human colon carcinoma) and MEL-28 (monolayer culture of a human melanoma).
(§3) A-549, HT-29 and MEL-28 cells were seeded into 16 mm wells at 2×10^4 cells per well in 1 ml aliquots of MEM 10FCS containing the indicated concentration of drug. A separate set of cultures without drug was seeded as control growth to ensure that cells remained in exponential phase of growth. All determinations were carried in duplicate. After three days of incubation at 37° C., 10% CO2 in a 98% humid atmosphere, the wells were stained with 0.1% Crystal Violet. An approximate IC50 was determined by comparing the growth in wells with drug to the growth in wells control.

[2] = test system: HT-29 (monolayer culture of a human colon carcinoma)
Experimental: as §1, §2, §3

[3] = test system: P-388 (suspension culture of a lymphoid neoplasm from DBA-2 mouse)
Experimental: as §1
A simple screening procedure was carried out to determine and compare the antitumor activity of this compound, using an adapted form of the method described by Bergeron et al. [Biochem. Bioph. […] The antitumor cells employed were P-388 (suspension culture of a lymphoid neoplasm from DBA-2 mouse), A-549 (monolayer culture of a human lung carcinoma), HT-29 (monolayer culture of a human colon carcinoma) and MEL-28 (monolayer culture of a human melanoma).
P-388 cells were seeded into 16 mm wells at 1×10^4 cells per well in 1 ml aliquots of MEM 5FCS containing the indicated concentration of drug. A separate set of cultures without drug was seeded as control growth to ensure that cells remained in exponential phase of growth. All determinations were carried out in duplicate. After three days of incubation at 37° C., 10% CO2 in a 98% humid atmosphere, an approximate IC50 was determined by comparing the growth in wells with drug to the growth in wells control.

[4] = test system: A-549 (monolayer culture of a human lung carcinoma)
Experimental: as §1, §2, §3

C=CC(C)(C)OC[C@@H]1NC(=O)[C@H]([C@@H](C)OC(C)(C)C=C)NC(=O)[C@@H]2CSC(=N2)[C@H](Cc2ccccc2)NC(=O)[C@@H]2CCCN2C(=O)[C@H](C)NC(=O)[C@H]([C@@H](C)CC)NC1=O [trunkamide A] (cyclo(AP[X1]T(Allyl(1,1-Me2))S(Allyl(1,1-Me2))I))
IC50 MEL-28 [1]: 1.0 µg/mL (≈ 1.19 µM) | IC50 HT-29 [2]: 0.5 µg/mL (≈ 0.597 µM) | IC50 P-388 [3]: 0.5 µg/mL (≈ 0.597 µM) | IC50 A-549 [4]: 0.5 µg/mL (≈ 0.597 µM)
